In patent US11554188B2, “Anti-viral dry cleaning process” ([…], LLC, priority 2020, dated 2023):
Values joined by “and” are separate entries in the source; they are usually repeats but may differ in a detail not shown here. Equal entries are not always repeated. Where two headings read alike, the source gives them in different places.

Legend:
Type in all cases: cell-based
[1] = tested on: SARS-CoV-2 strain USA-WA1/2020; conditions: for Averaged Test Sample Percent Log Reduction to Averaged Virus Controls: averaged over 15, 30, 45 min
[2] = tested on: SARS-CoV-2 strain USA-WA1/2020; experiment: Drying cycle and washing cycle combined test results (complete dry cleaning process); conditions: for Averaged Test Sample Percent Log Reduction of complete dry cleaning process: wash/spin results combined with heat, liquid and vapor results
Text: Data shown in Table 2 represents the individual dry cleaning process percent log reduction to the control samples for each coupon set at each process time, and averaged percent reduction of each process on viral deactivation. The silicone wash and spin rinse tests were combined with the heat, silicone liquid, and vapor exposure process results to define the overall percent viral reduction of the complete dry cleaning process. A plot showing the percent log reduction efficacy of each of the simulated dry cleaning processes and the total process in deactivating SARS-CoV-2 infected wool blend fabric material is shown in FIG. 2.
This testing was conducted to provide an accurate simulation of patented dry cleaning process in a laboratory environment.
It should be noted, that in one simulation of the drying cycle, the combination of heat, vapor, and liquid condition produced a percent log reduction to virus control of 98.00%.

[3] = tested on: SARS-CoV-2 strain USA-WA1/2020; conditions: Silicone wash, and spin cycle, time 45 min
[4] = Heat + Liquid + Vapor, 70° C., 15 min
[5] = Heat + Liquid + Vapor, 70° C., 30 min
[6] = Heat + Liquid + Vapor, 70° C., 45 min
[7] = Heat + Silicone Liquid, 70° C., 15 min
[8] = Heat + Silicone Liquid, 70° C., 30 min
[9] = Heat + Silicone Liquid, 70° C., 45 min
[10] = Heat + Silicone Vapor, 70° C., 15 min
[11] = Heat + Silicone Vapor, 70° C., 30 min
[12] = Heat + Silicone Vapor, 70° C., 45 min
[13] = samples G5-15 (condition cell blank; heat + liquid + vapor per Table 2), 15 min
[14] = samples G5-30 (condition cell blank; heat + liquid + vapor per Table 2), 30 min
[15] = samples G5-45 (condition cell blank; heat + liquid + vapor per Table 2), 45 min
[16] = Complete cycle - silicone wash, spin, heat and vapor, time 45 min
[17] = Silicone wash, and spin cycle, time 45 min

C[Si]1(C)O[Si](C)(C)O[Si](C)(C)O[Si](C)(C)O[Si](C)(C)O1 [D5, decamethylcyclopentasiloxane]
TCID50 (individual sample) ([1]; D5 Liquid Only Control, 45 min): 31.62
Avg TCID50 ([1]; Heat & D5 Liquid, 15 min): 789.8
TCID50 (individual sample) ([1]; Heat & D5 Liquid, 15 min): 316.2 and 794.3 and 1258.9254
Avg TCID50 ([1]; Heat & D5 Liquid, 30 min): 1125
TCID50 (individual sample) ([1]; Heat & D5 Liquid, 30 min): 879.9254 and 501.2 and 1995.2623
Avg TCID50 ([1]; Heat & D5 Liquid, 45 min): 1590
TCID50 (individual sample) ([1]; Heat & D5 Liquid, 45 min): 1258.9254 and 1415.1212 and 2096.18
Avg TCID50 ([1]; Heat & D5 Vapor, 15 min): 3389.8041
TCID50 (individual sample) ([1]; Heat & D5 Vapor, 15 min): 1995.2623 and 5011.8723 and 3162.2777
Avg TCID50 ([1]; Heat & D5 Vapor, 30 min): 2510
TCID50 (individual sample) ([1]; Heat & D5 Vapor, 30 min): 5011.8723 and 1258.9254 (2×)
Avg TCID50 ([1]; Heat & D5 Vapor, 45 min): 2983
TCID50 (individual sample) ([1]; Heat & D5 Vapor, 45 min): 3162.2777 and 3690.622 and 2096.18
Average of Test Replicates Log10 TCID50 [1, 4]: 1.98
Average of Test Replicates TCID50 [1, 4]: 94.92
Log10 Reduction to virus control [1, 4]: 1.70
Percent Log Reduction to Virus Control [1, 4]: 98.00%
Percent Log Reduction to Virus Control ([1]; Heat + Liquid + Vapor, 70° C., 15 min, listed as Silicone): 98.00%
Average of Test Replicates Log10 TCID50 [1, 5]: 2.14
Average of Test Replicates TCID50 [1, 5]: 138.31
Log10 Reduction to virus control [1, 5]: 1.54
Percent Log Reduction to Virus Control [1, 5]: 97.09%
Average of Test Replicates Log10 TCID50 [1, 6]: 2.37
Average of Test Replicates TCID50 [1, 6]: 232.01
Log10 Reduction to virus control [1, 6]: 1.31
Percent Log Reduction to Virus Control [1, 6]: 95.12%
Averaged Test Sample Percent Log Reduction to Averaged Virus Controls ([1]; Heat + Liquid + Vapor, 70° C.): approximately 96.7%
Averaged Test Sample Percent Log Reduction to Averaged Virus Controls ([1]; Heat + Liquid + Vapor, 70° C., listed as Silicone): 96.74%
Average of Test Replicates Log10 TCID50 [1, 7]: 2.90
Average of Test Replicates TCID50 [1, 7]: 789.83
Log10 Reduction to virus control [1, 7]: 0.78
Percent Log Reduction to Virus Control [1, 7]: 83.39%
Average of Test Replicates Log10 TCID50 [1, 8]: 3.05
Average of Test Replicates TCID50 [1, 8]: 1125.46
Log10 Reduction to virus control [1, 8]: 0.63
Percent Log Reduction to Virus Control [1, 8]: 76.34%
Average of Test Replicates Log10 TCID50 [1, 9]: 3.20
Average of Test Replicates TCID50 [1, 9]: 1590.08
Log10 Reduction to virus control [1, 9]: 0.48
Percent Log Reduction to Virus Control [1, 9]: 66.57%
Averaged Test Sample Percent Log Reduction to Averaged Virus Controls ([1]; Heat + Silicone Liquid, 70° C.): approximately 75.4%
Averaged Test Sample Percent Log Reduction to Averaged Virus Controls ([1]; Heat + Silicone Liquid, 70° C., listed as Silicone): 75.43%
Average of Test Replicates Log10 TCID50 [1, 10]: 3.53
Average of Test Replicates TCID50 [1, 10]: 3389.80
Log10 Reduction to virus control [1, 10]: 0.15
Percent Log Reduction to Virus Control [1, 10]: 28.72%
Average of Test Replicates Log10 TCID50 [1, 11]: 3.40
Average of Test Replicates TCID50 [1, 11]: 2509.91
Log10 Reduction to virus control [1, 11]: 0.28
Percent Log Reduction to Virus Control [1, 11]: 47.23%
Average of Test Replicates Log10 TCID50 [1, 12]: 3.47
Average of Test Replicates TCID50 [1, 12]: 2983.03
Log10 Reduction to virus control [1, 12]: 0.20
Percent Log Reduction to Virus Control [1, 12]: 37.28%
Averaged Test Sample Percent Log Reduction to Averaged Virus Controls ([1]; Heat + Silicone Vapor, 70° C.): 37.74%
Average of Test Replicates Log10 TCID50 ([1]; Silicone Liquid Control, room temperature (23° C.), 45 min): 1.50
Average of Test Replicates TCID50 ([1]; Silicone Liquid Control, room temperature (23° C.), 45 min, wool blend coupons): 31.62
Avg TCID50 [1, 13]: 91.92
TCID50 (individual sample) [1, 13]: 79.43 (2×) and 125.9
Avg TCID50 [1, 14]: 138.3
TCID50 (individual sample) [1, 14]: 209.618 and 79.43 and 125.9
Avg TCID50 [1, 15]: 232.1
TCID50 (individual sample) [1, 15]: 125.9 (2×) and 444.2
Average of Test Replicates Log10 TCID50 [2, 16]: 4.54
Average of Test Replicates TCID50 [2, 16]: 35138.40
Averaged Test Sample Percent Log Reduction of complete dry cleaning process ([2]; Complete cycle - silicone wash, spin, heat and vapor): approximately 98.6%
Averaged Test Sample Percent Log Reduction of complete dry cleaning process ([2]; Complete cycle - silicone wash, spin, heat and vapor, listed as Silicone): 98.57%
Log10 Reduction to virus control [2, 17]: 0.36
Percent Log Reduction to Virus Control [2, 17]: 56.18%
optimized calculated log reduction to the average virus controls ([2]; serial combination of 56.18% wash cycle reduction and 98.00% drying cycle reduction (heat, vapor, liquid)): 99.12%
Average of Test Replicates TCID50 ([3]; 89 mL, 35 RPM 16 min, spin 500 rpm 4 min): 35138.40
Average of Test Replicates Log10 TCID50 [3]: 4.54
Averaged Test Sample Percent Log Reduction of complete dry cleaning process [3]: 56.18%
Log10 Reduction to virus control [3]: 0.36
Percent Log Reduction to Virus Control [3]: 56.18%
Percent Log Reduction to Virus Control ([3]; listed as Silicone): 56.18%
